Results reported in patent US10286034B2, “Uses of bremelanotide in therapy for female sexual dysfunction” (Palatin Technologies, Inc., priority 2012, dated 2019).

Assay: Subcutaneous trials in males: vomiting and tolerability
Format: in vivo, human
Conditions: intramuscular administration, males

## Cc1nccn1CC1CCc2c(c3ccccc3n2C)C1=O (stereo not shown) [ondansetron, reference compound]
  effect on bremelanotide-induced vomiting: Vomiting could be resolved
